Test results from patent publication US20160194718A1, “Compositions and Methods for Identification, Assessment, Prevention, and Treatment of Cancer Using Histone H3K27ME3 Biomarkers and Modulators” (DANA-FARBER CANCER INSTITUTE, INC., priority 2013, published 2016).

Legend:
wild-type B cells = assay: Methylcellulose B cell colony forming / repassaging assay with drug; format: cell-based, mouse
Experimental: Whole bone marrow was harvested from 6-8-week-old mice, and red blood cells were lysed. Cells were plated in B cell (Methocult M3630, Stem Cell Technologies) or myeloid (Methocult M3434) methylcelluose media in gridded 35 mm dishes. Myeloid colonies were plated at 2×10^4 cells/ml per passage. B cell colonies were plated at 2×10^5 cells/ml in passage 1, and at 5×10^4 cells/ml per subsequent passage. Colonies were counted at 7 days, and colonies were then pooled and replated in the same manner.
(§1) GSK-J4 (KDM6A/UTX and KDM6B/JMJD3 inhibitor, catalog #M60063-2) (Kruidenier et al. (2012) Nature 488:404-408) and GSK-126 (EZH2 inhibitor, catalog #M60071-2) (McCabe et al. (2012) Nature 492:108-112) were purchased from Xcessbio. For methylcellulose experiments, at each passage DMSO, GSK-J4, or GSK-126 were added to cultures a final concentration of 1 μM. DS-ALLs (deidentified specimens obtained with informed consent under DFCI IRB protocol 05-001) were treated In vitro in quadruplicate with GSK-J4 at two-fold dilutions from 40 nM to 10 μM in RPMI with 20% calf serum supplemented with 10 ng/mL IL3, IL7, SCF, FLT3 ligand, and 50 μM beta-mercaptoethanol. After 3 days, viability was measured using CellTiter-Glo reagent and normalized to DMSO control (Promega).

H3K27me3 = assay: Western blotting of B cell colonies for H3K27me3; format: cell-based, mouse
Experimental: Western blotting was performed as described in Yoda et al. (2010) Proc. Natl. Acad. Sci. U.S.A. 107:252-257. Image J (available on the World Wide Web at imagej.nih.gov/ij) was used for quantitation of immunoblots, with band intensity normalized to total H3.
as §1

Ts1Rhr B cells = assay: Methylcellulose B cell colony forming / repassaging assay with drug; format: cell-based, mouse; conditions: 1 μM added at each passage
Experimental: as §1, with “Whole bone marrow was harvested from 6-8-week-old mice, and red blood cells were lysed. Cells were plated in B cell (Methocult M3630, Stem Cell Technologies) or myeloid (Methocult M3434) methylcelluose media in gridded 35 mm dishes. Myeloid colonies were plated at 2×10^4 cells/ml per passage. B cell colonies were plated at 2×10^5 cells/ml in passage 1, and at 5×10^4 cells/ml per subsequent passage. Colonies were counted at 7 days, and colonies were then pooled and replated in the same manner. GSK-J4 (KDM6A/UTX” for “GSK-J4 (KDM6A/UTX”

DS-ALLs = DS-ALLs treated in vitro with GSK-J4, viability by CellTiter-Glo; format: cell-based; conditions: Homo sapiens, 72 h; five DS-ALLs, 3 days, two-fold dilutions 40 nM to 10 μM, normalized to DMSO; read-out: IC50 values for GSK-J4 across a panel of DS-ALLs
Experimental: as §1

[1] = system: human primary macrophages; conditions: 10 μM; cited from earlier work
[2] = 1 μM, passage 2 colonies after 14 total days in culture

| SMILES | indefinite repassaging in wild-type B cells (wild-type B cells; 1 μM added at each passage) | indefinite repassaging after withdrawal of compound (wild-type B cells; wild-type cells, withdrawal at passage 5) | H3K27me3 in wild-type B cells (H3K27me3; [2]) | loss of H3K27me3 after withdrawal of compound (H3K27me3; wild-type cells, one passage (7 days) after removal) | indefinite repassaging (Ts1Rhr B cells) | colony-forming activity (Ts1Rhr B cells; vs DMSO) | H3K27me3 in Ts1Rhr B cells (H3K27me3; [2]) | IC50 (DS-ALLs) | lipopolysaccharide-induced proinflammatory cytokine production [1] |
| --- | --- | --- | --- | --- | --- | --- | --- | --- | --- |
| CC[C@H](C)n1cc(C)c2c(C(=O)NCc3c(C)cc(C)[nH]c3=O)cc(-c3ccc(N4CCNCC4)nc3)cc21 [GSK-126, (S)-1-(sec-butyl)-N-((4,6-dimethyl-2-oxo-1,2-dihydropyridin-3-yl)methyl)-3-methyl-6-(6-(piperazin-1-yl)pyridin-3-yl)-1H-indole-4-carboxamide] | sufficient to confer indefinite repassaging | reversible | decreased H3K27me3 | reversible | – | – | – | – | – |
| CCOC(=O)CCNc1cc(N2CCc3ccccc3CC2)nc(-c2ccccn2)n1 [GSK-J4, ethyl 3-((6-(4,5-dihydro-1H-benzo[d]azepin-3(2H)-yl)-2-(pyridin-2-yl)pyrimidin-4-yl)amino)propanoate] | – | – | – | – | blocked indefinite repassaging | decreased colony-forming activity | increased H3K27me3 | 1400 to 2500 nM | reduces |
